Test results published in US20080249130A1, “Gut microsomal triglyceride transport protein inhibitors” (Sirtris Pharmaceuticals, Inc., priority 2007, published 2008).
Several values for one entry are separate records, joined by “and”; a condition that tells them apart may be missing. Equal values may be shown once. Where a name gives a salt, the structure may show the parent alone. Read-outs that look alike come from different tables or passages of the source.

Experiments:
[1] = test system: secretion of ApoB by HepG2 cells; assay: ApoB secretion inhibition assay in HepG2 cells (ApoB ELISA); assay type: cell-based, human; conditions: Homo sapiens
Experimental: The ability of the compounds of the present invention to inhibit the secretion of ApoB can be determined using the following cell-based assay, which measures the secretion of ApoB by HepG2 cells. ApoB has two possible metabolic fates: entrance into the lipoprotein assembly pathway within the lumen of the endoplasmic reticulum (ER), or degradation in the cytoplasm by the ubiquitin-dependent proteasome. The destiny of ApoB is determined by the relative availability of individual lipids, which is controlled by MTP (Davis, Biochim. Biophys. Acta, 1999, 1440, 1-31).
HepG2 cells (ATCC, HB-8065) are seeded in 96-well plates in DMEM with 10% FBS+pen/strep at a density of 1×10^5 cells/well (100 μl /well). Twenty-four hours after seeding, the plate is aspirated and the media changed to DMEM with 1% BSA and pen/strep, and the cells are serum-starved for 24 hours. After 24 hour serum-starvation, the plate is aspirated again and the cells are then treated for 24 hours with or without compound in DMEM with 1% BSA, 0.3 mM OA (OA complexed to BSA at a 2:1 ratio) and pen/strep. The final concentration of DMSO in the assay (from compound and control) is 0.1%. After 24 hour treatment, conditioned media is collected in an empty 96-well plate.
Cellular viability is measured using the cell permeable dye, AlamarBlue™. This dye undergoes electron reduction in viable cells but not dead cells. The reduced dye product gives a fluorescent signal which can be monitored with a fluorescence plate reader (excitation 545 nm and emission 575 nm). The amount of fluorescence generated in a given well is proportional to the number of viable cells. After collection, the 96-well plate is re-fed with 100 μl media (DMEM with 10% FBS) and 10 μl Alamar Blue™ per well, incubated for 2 hours and then read in a fluorescence plate reader.
ApoB secretion from HepG2 cells is quantitated by testing the conditioned media at […] using an ApoB ELISA kit (ALerCHEK) according to the manufacturer's instructions. The ELISA assay for ApoB is performed as follows: a polyclonal antibody against human ApoB (Chemicon) is diluted 1:1000 in carbonate-bicarbonate buffer and 100 μl are added to each well of a 96-well plate (NUNC). After 5 hours incubation at room temperature, the antibody solution is removed and wells are washed four times with PBS/0.05% TweenD 20 (Cayman Chemical Co.). Non-specific sites on the plastic plate are blocked by incubating wells for 1 to 1.5 hours in a solution of 0.5% BSA and 0.1% TweenD 20 made in PBS. One hundred microliters of a 1:20 dilution of growth medium from the HepG2 cells (made in 0.004% TweenD 20/1% BSA in PBS) is added to each well and incubated for 3 hours at room temperature. Wells are aspirated and washed four times (0.05% TweenD 20 in PBS) prior to adding 100 μl of a 1:1000 dilution (5 μg/ml) of the secondary antibody, mouse anti-human ApoB (Chemicon). After 2 hours incubation at room temperature, this solution is aspirated and the wells are again washed 4 times as above. One hundred microliters of peroxidase-conjugated affinity purified goat anti-mouse IgG (H+L) (Jackson ImmunoResearch Laboratories) (1:10,000 dilution in PBS/1% BSA/0.1% TweenD 20) is then added to each well and incubated for 1 hour at room temperature. After aspirating, the wells are washed 4 times as above and 50 μl of 1-step Ultra TMB ELISA reagent (Pierce) is added to each well and incubated for 5 minutes. The reaction is stopped by the addition of 50 μl of 2 NH2SO4 and absorbance of each well is read at 450 nm.

MTP = MTP (Homo sapiens, UniProt P55157); assay: In vitro inhibition of MTP, triacylglycerol transfer assay with donor and acceptor liposomes (fluorescence); assay type: biochemical
Experimental: This assay is commercially available (Cat. #D400, Chylos Inc., New York). Liposomes are pipetted in 5 μl aliquots into the wells of a black fluorescence microtiter plate, followed by addition of 5 μl of water and an incubation of 2-5 min to allow the samples to equilibrate to rt. Next, 5 μl of compound dissolved in DMSO is added to the vesicles. The reaction is initated by the addition of 5 μl MTP, followed by incubation for 30 min at room temperature. […] Time of incubation can be increased to measure low activity in different samples. In such situations, samples are prepared just prior to measuring fluorescence units. For this purpose, isopropanol is added to substrate vesicles about 5 min prior to fluorescence measurement as the fluorescence readings in isopropanol decrease with time.

[2] = HepG2, Table 6, assay of Example 2, read-out: IC50 ApoB Assay
[3] = Table 6, assay of Example 3, read-out: IC50 Enzyme Assay
[4] = HepG2, Tables 2-5, second symbol of the cell, read-out: IC50 Apo B Secretion Assay (Example 2)
[5] = Tables 2-5, first symbol of the cell, read-out: IC50 Tri-acylglycerol (TAG) Transfer Assay (Example 3)

Chain of MTP (P55157 19-894, species assumed): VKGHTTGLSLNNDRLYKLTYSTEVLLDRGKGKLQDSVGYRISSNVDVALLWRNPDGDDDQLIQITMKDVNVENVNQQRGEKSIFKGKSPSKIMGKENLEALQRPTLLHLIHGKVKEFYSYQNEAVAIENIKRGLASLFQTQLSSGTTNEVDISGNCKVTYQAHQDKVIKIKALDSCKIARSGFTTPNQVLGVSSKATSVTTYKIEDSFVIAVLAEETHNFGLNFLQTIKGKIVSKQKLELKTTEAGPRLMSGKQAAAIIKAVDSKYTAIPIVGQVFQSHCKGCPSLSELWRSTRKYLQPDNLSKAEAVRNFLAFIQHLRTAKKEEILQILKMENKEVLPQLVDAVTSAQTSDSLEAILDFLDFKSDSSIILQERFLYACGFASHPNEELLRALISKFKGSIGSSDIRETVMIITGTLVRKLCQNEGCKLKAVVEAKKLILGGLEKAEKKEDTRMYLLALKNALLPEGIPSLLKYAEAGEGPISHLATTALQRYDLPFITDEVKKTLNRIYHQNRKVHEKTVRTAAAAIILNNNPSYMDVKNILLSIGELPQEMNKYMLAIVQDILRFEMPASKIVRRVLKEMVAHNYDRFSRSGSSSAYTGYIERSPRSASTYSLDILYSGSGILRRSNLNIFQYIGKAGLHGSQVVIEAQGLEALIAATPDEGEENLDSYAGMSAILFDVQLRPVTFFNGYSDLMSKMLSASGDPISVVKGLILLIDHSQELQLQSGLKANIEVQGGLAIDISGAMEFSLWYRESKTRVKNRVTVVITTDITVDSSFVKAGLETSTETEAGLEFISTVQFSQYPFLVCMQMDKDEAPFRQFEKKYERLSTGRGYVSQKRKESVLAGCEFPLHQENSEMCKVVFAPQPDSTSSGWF
Chain of MTP (P07237 18-508 partner, species assumed): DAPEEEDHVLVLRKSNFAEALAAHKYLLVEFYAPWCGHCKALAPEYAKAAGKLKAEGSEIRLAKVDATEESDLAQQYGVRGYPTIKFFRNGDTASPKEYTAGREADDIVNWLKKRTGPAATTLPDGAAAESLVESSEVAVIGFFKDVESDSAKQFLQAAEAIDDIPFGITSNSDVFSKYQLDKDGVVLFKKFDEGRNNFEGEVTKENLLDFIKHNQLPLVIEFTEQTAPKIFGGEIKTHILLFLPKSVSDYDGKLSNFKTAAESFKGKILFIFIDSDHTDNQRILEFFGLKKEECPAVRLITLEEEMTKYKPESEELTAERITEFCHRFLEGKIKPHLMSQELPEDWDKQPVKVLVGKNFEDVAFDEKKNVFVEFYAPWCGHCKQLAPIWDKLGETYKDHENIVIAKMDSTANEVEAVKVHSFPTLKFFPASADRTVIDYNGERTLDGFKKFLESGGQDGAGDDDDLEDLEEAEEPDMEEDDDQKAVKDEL

Which IC50 [1, 2] does the source give for `CN(Cc1ccc(F)cc1)C(=O)[C@@H](NC(=O)c1nc2ccc(NC(=O)c3ccccc3-c3csc(-c4ccccc4)n3)cc2s1)c1ccccc1` [Compound 38] here?
Its IC50 is 22.4 nM.

What about the IC50 (MTP; [3]) of the same compound?
The IC50 was 24 nM.

With `Cc1csc2nc(-c3ccccc3C(=O)Nc3ccc4nc(C(=O)N[C@H](C(=O)N(C)Cc5ccc(F)cc5)c5ccccc5)sc4c3)cn12` [Compound 64, (S)—N-(2-((4-fluorobenzyl)(methyl)amino)-2-oxo-1-phenylethyl)-6-(2-(3-methylimidazo[2,1-b]thiazol-6-yl)benzamido)benzo[d]thiazole-2-carboxamide] as the compound, how does the IC50 [1, 2] read?
Its IC50 is 6.9 nM.

And the IC50 (MTP; [3])?
Its IC50 is 95.8 nM.

What does the source list for `CN(Cc1ccc(F)cc1)C(=O)[C@@H](NC(=O)c1nc2ccc(NC(=O)c3ccccc3-c3cn4ccccc4n3)cc2s1)c1ccccc1` [Compound 40]?
IC50 [1, 2]: 4.2 nM; IC50 (MTP; [3]): 13 nM

What does the source list for `CCCCCNC(=O)[C@@H](NC(=O)c1nc2ccc(NC(=O)c3ccccc3-c3ccc(C(C)(C)C)cc3)cc2s1)c1ccccc1` [Compound 8]?
IC50 [1, 2]: 3.1 nM; IC50 (MTP; [3]): 8.4 nM

Which results are given for `CCCN(C)C(=O)[C@@H](NC(=O)C12CCC(CNC(=O)c3cccc(C)c3-c3ccc(C(C)(C)C)cc3)(CC1)CC2)c1ccccc1` [Compound 73]?
IC50 [1, 2]: 11.8 nM; IC50 (MTP; [3]): 3.5 nM

Which results are given for `COc1cccc(C(=O)Nc2ccc3nc(C(=O)N[C@H](C(=O)N(C)Cc4ccc(F)cc4)c4ccccc4)sc3c2)c1-c1ccc(C(C)(C)C)cc1` [Compound 78]?
IC50 [1, 2]: 2.4 nM; IC50 (MTP; [3]): 20.5 nM and 7.9 nM

How did the IC50 [1, 2] turn out when `CC(C)(C)c1ccc(-c2ccccc2C(=O)NC23CCC(C(=O)N[C@H](C(=O)N4CCCC4)c4ccccc4)(CC2)CC3)cc1` [Compound 67, (S)-4-(4′-tert-butylbiphenyl-2-ylcarboxamido)-N-(2-oxo-1-phenyl-2-(pyrrolidin-1-yl)ethyl)bicyclo[2.2.2]octane-1-carboxamide] was run?
Its IC50 is 1.8 nM.

And the IC50 (MTP; [3])?
Its IC50 is 2.4 nM.

Which results are given for `Cc1cccc(C(=O)Nc2nc(-c3ccc(C(=O)N[C@H](C(=O)N4CCCC4)c4ccccc4)cc3)cs2)c1-c1ccc(C(C)(C)C)cc1` [Compound 83]?
IC50 [1, 2]: 13.2 nM; IC50 (MTP; [3]): 10.2 nM

For `CC(C)c1ccc(-c2ccccc2C(=O)Nc2ccc3nc(C(=O)N[C@H](C(=O)N4CCCC4)c4ccccc4)sc3c2)cc1` [Compound 55, (S)-6-(4′-isopropylbiphenyl-2-ylcarboxamido)-N-(2-oxo-1-phenyl-2-(pyrrolidin-1-yl)ethyl)benzo[d]thiazole-2-carboxamide], which IC50 [1, 2] is on record?
Its IC50 is 6.7 nM.

And the IC50 (MTP; [3])?
The IC50 was 8.1 nM and 3.9 nM.

Which results are given for `Cc1cccc(C(=O)NCC23CCC(C(=O)N[C@H](C(=O)N(C)Cc4ccc(F)cc4)c4ccccc4)(CC2)CC3)c1-c1ccc(C(C)(C)C)cc1` [Compound 75]?
IC50 [1, 2]: 5.9 nM; IC50 (MTP; [3]): 56.2 nM

`CN(Cc1ccc(F)cc1)C(=O)[C@@H](NC(=O)C12CCC(CNC(=O)c3ccccc3-c3ccc(C(C)(C)C)cc3)(CC1)CC2)c1ccccc1` [Compound 10, (S)-4-((4′-tert-butylbiphenyl-2-ylcarboxamido)methyl)-N-(2-((4-fluorobenzyl)(methyl)amino)-2-oxo-1-phenylethyl)bicyclo[2.2.2]octane-1-carboxamide] was tested. Which IC50 [1, 2] did it give?
Its IC50 is 54 nM.

What about the IC50 (MTP; [3]) of the same compound?
The IC50 was 33 nM.

With `Cc1cccc(C(=O)Nc2ccc3nc(C(=O)N[C@H](C(=O)N(C)Cc4ccc(F)cc4)c4ccccc4)sc3c2)c1-c1ccc(C(C)C)cc1` [Compound 86] as the compound, how does the IC50 [1, 2] read?
Its IC50 is 1.5 nM.

What about the IC50 (MTP; [3]) of the same compound?
The IC50 was 9.9 nM and 5.2 nM.

With `O=C1C[C@@H](c2ccc(O)cc2)Oc2cc(O)cc(O)c21` [compound 1, Naringenin, reference compound] as the compound, how does the IC50 ([1]; HepG2, Table 1, HepG2 cells, read-out: gMTP IC50 ApoB Secretion Assay (Example 2)) read?
Its IC50 is 200000 nM.

And the inhibition at 200 µM ([1]; at 200 μM, HepG2 cells)?
Its inhibition at 200 µM is 50%.

And the “inhibition in Triacylglycerol Transfer Assay (Example 3)” value (MTP; at 200 μM)?
The value was greater than 90% inhibitionat 200 μM.

What about the inhibition at 200 µM (MTP; at 200 μM, read-out: inhibition in Triacylglycerol Transfer Assay (Example 3)) of the same compound?
The inhibition at 200 µM was greater than 90%.

How did the IC50 [1, 2] turn out when `CC(C)(C)c1ccc(-c2ccccc2C(=O)Nc2nc(-c3ccc(C(=O)N[C@H](C(=O)N4CCCC4)c4ccccc4)cc3)cs2)cc1` [Compound 36, (S)-4′-tert-butyl-N-(4-(4-(2-oxo-1-phenyl-2-(pyrrolidin-1-yl)ethylcarbamoyl)phenyl)thiazol-2-yl)biphenyl-2-carboxamide] was run?
The IC50 was 6.7 nM.

What about the IC50 (MTP; [3]) of the same compound?
Its IC50 is 5.7 nM.

Which results are given for `CC(C)(C)c1ccc(-c2ccccc2C(=O)Nc2ccc3nc(C(=O)N[C@H](C(=O)N4CCCC4)c4ccccc4)sc3c2)cc1` [Compound 7]?
IC50 [1, 2]: 1 nM; IC50 (MTP; [3]): 2.6 nM

Which results are given for `CN(Cc1ccc(F)cc1)C(=O)[C@@H](NC(=O)c1ccc2nc(NC(=O)c3ccccc3C3CCNC3)ccc2c1)c1ccccc1` (some centres unmarked) [Compound C3]?
IC50 [1, 4]: > 1010 nM; IC50 (MTP; [5]): 101 to 1000 nM

Which results are given for `CC(C)(C)c1ccc(-c2ccccc2C(=O)Nc2ccc3nc(C(=O)N[C@H](C(=O)N4CCCC4)c4ccccc4)sc3c2)cc1` [drawing 126/drawing 123]?
IC50 [1, 4]: < 100 nM; IC50 (MTP; [5]): < 100 nM

`CC(C)(C)c1ccc(-c2ccccc2C(=O)Nc2nc(-c3cccc(C(=O)N[C@H](C(=O)N4CCCC4)c4ccccc4)c3)cs2)cc1` [Compound 12, (S)-4′-tert-butyl-N-(4-(3-(2-oxo-1-phenyl-2-(pyrrolidin-1-yl)ethylcarbamoyl)phenyl)thiazol-2-yl)biphenyl-2-carboxamide] was tested. Which IC50 [1, 2] did it give?
Its IC50 is 41 nM.

And the IC50 (MTP; [3])?
The IC50 was 2 nM.

With `CN(Cc1ccc(F)cc1)C(=O)[C@@H](NC(=O)c1ccc2nc(NC(=O)c3ccccc3C3CCNC3)ccc2c1)c1ccccc1` (stereo partly drawn) [Compound 2, N—((S)-2-((4-fluorobenzyl)(methyl)amino)-2-oxo-1-phenylethyl)-2-(2-(pyrrolidin-3-yl)benzamido)quinoline-6-carboxamide hydrochloride] as the compound, how does the IC50 [1, 2] read?
Its IC50 is 3500 nM.

And the IC50 (MTP; [3])?
The IC50 was 530 nM.

How did the IC50 [1, 2] turn out when `CN(Cc1ccc(F)cc1)C(=O)[C@@H](NC(=O)c1cn2cc(NC(=O)c3ccccc3-c3ccc(C(C)(C)C)cc3)ccc2n1)c1ccccc1` [Compound 33, (S)-6-(4′-tert-butylbiphenyl-2-ylcarboxamido)-N-(2-((4-fluorobenzyl)(methyl)amino)-2-oxo-1-phenylethyl)imidazo[1,2-a]pyridine-2-carboxamide] was run?
Its IC50 is 6.4 nM.

And the IC50 (MTP; [3])?
The IC50 was 7.1 nM.

Which results are given for `CN(Cc1ccc(F)cc1)C(=O)[C@@H](NC(=O)C12CCC(NC(=O)c3ccccc3-c3ccc(C(C)(C)C)cc3)(CC1)CC2)c1ccccc1` [Compound 68, (S)-4-(4′-tert-butylbiphenyl-2-ylcarboxamido)-N-(2-((4-fluorobenzyl)(methyl)amino)-2-oxo-1-phenylethyl)bicyclo[2.2.2]octane-1-carboxamide]?
IC50 [1, 2]: 5.6 nM; IC50 (MTP; [3]): 9.9 nM

Which IC50 [1, 4] does the source give for `CN(Cc1ccc(F)cc1)C(=O)[C@@H](NC(=O)c1ccc2nc(NC(=O)c3ccccc3-c3cn4ccsc4n3)ccc2c1)c1ccccc1` [Compound C5] here?
The IC50 was less than 100 nM.

And the IC50 (MTP; [5])?
Its IC50 is less than 100 nM.

Which IC50 [1, 4] does the source give for `CN(Cc1ccc(F)cc1)C(=O)[C@@H](NC(=O)C12CCC(CNC(=O)c3ccccc3-c3ccc(C(C)(C)C)cc3)(CC1)CC2)c1ccccc1` [drawing 120/drawing 118] here?
Its IC50 is 101 to 1000 nM.

What about the IC50 (MTP; [5]) of the same compound?
The IC50 was less than 100 nM.

How did the IC50 [1, 2] turn out when `CN(Cc1ccc(F)cc1)C(=O)[C@@H](NC(=O)c1nc2ccc(NC(=O)c3ccccc3-c3ccc(C(F)(F)F)cc3)cc2s1)c1ccccc1` [Compound 32] was run?
The IC50 was 17.3 nM.

What about the IC50 (MTP; [3]) of the same compound?
Its IC50 is 145 nM.
